# From patent US20070104750A1, “Pesticidally active compositions having enhanced activity” (priority 2005, published 2007)
# Like-named read-outs stand apart in the source and are kept apart here.
# Columns and labels:
# [1] = Text: Determination of whether a pesticidally active ingredient is reactive with singlet oxygen can be determined from a simple singlet oxygen reactivity test, comprising irradiating a solution of a pesticidally active ingredient in the presence of a photosensitizer, e.g. methylene blue or rose bengal, with a suitable light source, e.g. a sodium lamp, whose spectral output is capable of allowing light absorption by the photo-sensitizer while bypassing the absorption band of the pesticidally active ingredient. The light source, in combination with the photosensitizer and molecular oxygen, will generate singlet oxygen. The observed degradation of the pesticidally active ingredient by a suitable analytical technique, such as HPLC, is indicative of its reaction with singlet oxygen. This test can be conducted in solvents in which singlet oxygen has a relatively long lifetime, e.g. perdeuterated versions of common solvents and carbon disulfide in order to speed the rate of reaction and thereby maximize the detectability of the degradation. Decay constants for singlet oxygen in various solvents are well known in the art and can be found in J. Phys. […] An Expanded and Revised Compilation” by Francis Wilkinson, W. Phillip Helman and Alberta B. Ross; Table 1, entitled Decay Constants for Singlet Oxygen in Various Solvents.
# Confirmation of the degradation of the pesticidally active ingredient by singlet oxygen can be obtained further by adding a molecule which is capable of deactivating singlet oxygen by physical or chemical means, i.e. a singlet oxygen quencher, to the pesticidally active ingredient-photosensitizer solution. Suitable singlet oxygen quenchers include, for example DABCO (1,4-diazabicyclo[2.2.2]octane) and beta-carotene. A reduction in the rate of degradation of the pesticidally active ingredient in the presence of a singlet oxygen quencher confirms that the initial degradation was due to the reaction with singlet oxygen.
# The solution was irradiated with a Philips 150 watt high pressure sodium lamp (sample was ca. 20 cm from lamp). […] The experiment was repeated with the inclusion of the singlet oxygen quencher DABCO (1.0×10^−3M, diazabicyclooctane Aldrich). A value greater than one indicates a slowing of the degradation due to singlet oxygen in the presence of the quencher.
# [2] = tested on: beet armyworm (Spodoptera exigua) larvae
# [3] = activity enhancer alone, 10,000 ppm, 4 DAT
# [4] = activity enhancer alone, 10,000 ppm, 7 DAT
# [5] = activity enhancer alone, 1000 ppm, 9 DAT
molecule,measurement,setting,value
Abamectin,kwo/kw,"[1]; potential activity enhancer Zein, weight ratio I/II 1:20, isopropanol(85)/water(15)",1.0
same,kwo/kw,"[1]; quencher DABCO, weight ratio active ingredient/DABCO 7.8:1, acetonitrile-d3",37.2
CC(Cc1ccc(C(C)(C)C)cc1)CN1C[C@@H](C)O[C@@H](C)C1 (stereo partly drawn) [Fenpropimorph],kwo/kw,"[1]; quencher DABCO, weight ratio active ingredient/DABCO 2.7:1, acetonitrile",7.7
BSA (as 30% aqueous suspension): Bovine Serum Albumin available from Sigma,Percent mortality,[2]; [3],0%
same,Percent mortality,[2]; [4],0%
BSA (as 96% powder): Bovine Serum Albumin available from Sigma,Percent mortality,[2]; [3],0%
same,Percent mortality,[2]; [4],0%
"C1CN2CCN1CC2 [DABCO, diazabicyclooctane]",Percent mortality,"[2]; activity enhancer alone, 1000 ppm, 2 DAT",0%
same,Percent mortality,"[2]; activity enhancer alone, 1000 ppm, 7 DAT",0%
same,Percent mortality,[2]; [5],0%
"C1N2CN3CN1CN(C2)C3 [HMTA, hexamethylenetetramine]",Percent mortality,[2]; [5],4%
"CCO[C@@H]1[C@@H](OC)[C@H](C)O[C@@H](O[C@@H]2C[C@H]3CC[C@@H]4[C@@H](C=C5C(=O)[C@H](C)[C@@H](O[C@H]6CC[C@H](N(C)C)[C@@H](C)O6)CCC[C@H](CC)OC(=O)C[C@H]54)[C@@H]3C2)[C@@H]1OC [DE-175 J, (2R,3aR,5aR,5bS,9S,13S,14R,16aS,16bR)-13-{[(2R,5S,6R)-5-(dimethylamino)-6-methyltetrahydro-2H-pyran-2-yl]oxy}-9-ethyl-14-methyl-7,15-dioxo-2,3,3a,4,5,5a,5b,6,7,9,10,11,12,13,14,15,16a,16b-octadecahydro-1H-as-indaceno[3,2-d]oxacyclododecin-2-yl 6-deoxy-3-O-ethyl-2,4-di-O-methyl-α-L-mannopyranoside]",rate constant for the degradation,[1],0.1317 min⁻¹
same,kwo/kw,"[1]; potential activity enhancer TEPA, weight ratio I/II 3.3:1, acetonitrile",1.9
same,kwo/kw,"[1]; potential activity enhancer Tryptophan, weight ratio I/II 1:1, methanol",1.15
same,kwo/kw,"[1]; potential activity enhancer Tryptophan, weight ratio I/II 1:10, methanol",1.3
same,kwo/kw,"[1]; potential activity enhancer Zein, weight ratio I/II 1:5, isopropanol(85)/water(15)",1.0
same,kwo/kw,"[1]; quencher DABCO, weight ratio active ingredient/DABCO 3.3:1, acetonitrile",5.1
C=CCOC(Cn1ccnc1)c1ccc(Cl)cc1Cl (stereo not drawn) [Imazalil],kwo/kw,"[1]; quencher DABCO, weight ratio active ingredient/DABCO 2.6:1, acetonitrile",4.4
"Egg albumin: Egg Albumin available from Sigma (protein, UniProt P01012 2-386, looked up) Ovalbumin: GSIGAASMEFCFDVFKELKVHHANENIFYCPIAIMSALAMVYLGAKDSTRTQINKVVRFDKLPGFGDSIEAQCGTSVNVHSSLRDILNQITKPNDVYSFSLASRLYAEERYPILPEYLQCVKELYRGGLEPINFQTAADQARELINSWVESQTNGIIRNVLQPSSVDSQTAMVLVNAIVFKGLWEKAFKDEDTQAMPFRVTEQESKPVQMMYQIGLFRVASMASEKMKILELPFASGTMSMLVLLPDEVSGLEQLESIINFEKLTEWTSSNVMEERKIKVYLPRMKMEEKYNLTSVLMAMGITDVFSSSANLSGISSAESLKISQAVHAAHAEINEAGREVVGSAEAGVDAASVSEEFRADHPFLFCIKHIATNAVLFFGRCVSP",Percent mortality,"[2]; activity enhancer alone, 1000 ppm, 3 DAT",0%
same,Percent mortality,"[2]; activity enhancer alone, 1000 ppm, 5 DAT",0%
same,Percent mortality,"[2]; activity enhancer alone, 1000 ppm, 8 DAT",0%
